{"source": "ChEMBL document CHEMBL6096733", "about": "“Structure-Based Virtual Screening Identifies 2-Arylthiazole-4-Carboxylic Acids as a Novel Class of Nanomolar Affinity Ligands for the CaMKIIα Hub Domain” (J Med Chem, 2025)", "key": {"[1]": {"biological_target": "T1, Calcium/calmodulin-dependent protein kinase type II subunit alpha (Rattus norvegicus, UniProt P11275)", "T1 sequence (P11275 whole entry)": "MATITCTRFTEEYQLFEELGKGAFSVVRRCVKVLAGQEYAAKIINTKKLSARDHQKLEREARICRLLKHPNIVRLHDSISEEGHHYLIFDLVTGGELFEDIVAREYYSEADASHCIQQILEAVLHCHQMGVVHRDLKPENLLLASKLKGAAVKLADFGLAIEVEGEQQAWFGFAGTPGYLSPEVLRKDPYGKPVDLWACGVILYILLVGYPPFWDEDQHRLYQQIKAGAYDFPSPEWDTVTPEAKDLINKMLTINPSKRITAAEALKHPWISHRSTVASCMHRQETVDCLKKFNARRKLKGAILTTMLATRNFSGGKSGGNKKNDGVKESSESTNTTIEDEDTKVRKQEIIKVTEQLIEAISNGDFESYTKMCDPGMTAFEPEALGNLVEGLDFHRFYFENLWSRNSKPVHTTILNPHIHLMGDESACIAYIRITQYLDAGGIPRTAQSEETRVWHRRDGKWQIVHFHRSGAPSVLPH", "assay": "Inhibition of […] binding to CaMKIIalpha in rat brain cortical membrane assessed as inhibition constant incubated for 1 hrs by TopCount NXT microplate scintillation counter analysis", "type": "cell membranes, Cortex"}, "[2]": {"biological_target": "T1, Calcium/calmodulin-dependent protein kinase type II subunit alpha", "assay": "Inhibition of [3H]NCS-382 binding to CaMKIIalpha in rat brain cortical membrane assessed as inhibition constant incubated for 1 hrs by TopCount NXT microplate scintillation counter analysis", "type": "cell membranes, Cortex", "details": "read-out: Ki"}, "physchem": {"assay": "physchem", "details": "potassium phosphate buffer, pH 7.4", "description": "Stability of compound in potassium phosphate buffer at pH 7.4 assessed as half-life"}, "[3]": {"biological_target": "T2, Calcium/calmodulin-dependent protein kinase type II subunit alpha (Homo sapiens, UniProt Q9UQM7)", "T2 sequence (Q9UQM7 whole entry, the tested form may be a part)": "as the sequence (P11275 whole entry) above, with N324S counted along it", "assay": "Induction of thermal stabilization of recombinant wildtype human CAMKIIalpha hub domain (345 to 475 residues) extracted from Escherichia coli BL21 (DE3) cells by differential scanning fluorimetric analysis", "details": "dose 0.625-320 µM"}, "[4]": {"biological_target": "T2, Calcium/calmodulin-dependent protein kinase type II subunit alpha", "assay": "Induction of thermal stabilization of recombinant wildtype human CAMKIIalpha hub domain (345 to 475 residues) extracted from Escherichia coli BL21 (DE3) cells assessed as change in melting temperature at 0.625 to 320 microM by differential scanning fluorimetric analysis", "details": "dose 0.625-320 µM"}}}
{"smiles": "Clc1cccc(Cl)c1-c1nc(Cc2nnn[nH]2)cs1", "values": [{"measurement": "Ki", "setting": "[1]; read-out: Ki", "result": 44.8, "unit": "µM"}]}
{"smiles": "O=C(O)c1csc(-c2ccccc2)n1", "values": [{"measurement": "Ki", "setting": "[1]; read-out: Ki", "result": 11.5, "unit": "µM"}]}
{"smiles": "OC1(c2csc(-c3c(Cl)cccc3Cl)n2)COC1", "values": [{"measurement": "Ki", "setting": "[1]; read-out: Ki", "result": "> 100", "unit": "µM"}]}
{"smiles": "CCc1ccc(-c2nc(C(=O)O)cs2)cc1", "values": [{"measurement": "Ki", "setting": "[1]; read-out: Ki", "result": 5.4, "unit": "µM"}]}
{"smiles": "O=C(O)c1csc(-c2c(I)cccc2I)n1", "values": [{"measurement": "Ki", "setting": "[1]; read-out: Ki", "result": 0.16, "unit": "µM"}]}
{"smiles": "O=C(O)Cc1csc(Cc2ccccc2)n1", "values": [{"measurement": "Ki", "setting": "[1]; read-out: Ki", "result": "> 10", "unit": "µM"}]}
{"smiles": "OC1(c2nc(-c3c(Cl)cccc3Cl)cs2)COC1", "values": [{"measurement": "Ki", "setting": "[1]; read-out: Ki", "result": "> 100", "unit": "µM"}]}
{"smiles": "O=C(O)c1csc(-c2ccccc2O)n1", "values": [{"measurement": "Ki", "setting": "[2]", "result": 8, "unit": "µM"}]}
{"smiles": "O=C(O)c1csc(-c2ccccc2Cl)n1", "values": [{"measurement": "Ki", "setting": "[1]; read-out: Ki", "result": 1, "unit": "µM"}]}
{"smiles": "O=C(O)c1csc(-c2ccc(C(F)(F)F)cc2)n1", "values": [{"measurement": "Ki", "setting": "[2]", "result": 10.3, "unit": "µM"}]}
{"smiles": "O=C(O)c1csc(-c2ccc(O)cc2)n1", "values": [{"measurement": "Ki", "setting": "[1]; read-out: Ki", "result": 12.6, "unit": "µM"}]}
{"smiles": "O=C(O)c1csc(Cc2ccccc2)n1", "values": [{"measurement": "Ki", "setting": "[1]; read-out: Ki", "result": 1.4, "unit": "µM"}]}
{"smiles": "O=C(O)c1csc(-c2cccc3ccccc23)n1", "values": [{"measurement": "Ki", "setting": "[1]; read-out: Ki", "result": 0.22, "unit": "µM"}]}
{"smiles": "CCN(CC)CCOC(=O)c1ccc(N)cc1", "note": "[PROCAINE]", "values": [{"measurement": "half-life", "setting": "physchem", "result": 2, "unit": "min"}]}
{"smiles": "O=C(O)c1csc(-c2c(Br)cccc2Br)n1", "values": [{"measurement": "Activity", "setting": "[3]", "result": "Dose-dependent-effect"}, {"measurement": "Ki", "setting": "[1]; read-out: Ki", "result": 0.05, "unit": "µM"}, {"measurement": "ΔTm", "setting": "[4]", "result": 22, "unit": "°C"}]}
{"smiles": "O=C(O)C1=CC(O)CC1", "note": "(stereo unspecified)", "values": [{"measurement": "Ki", "setting": "[1]; read-out: pKi (converted)", "result": 0.126, "unit": "µM"}]}
{"smiles": "O=C(O)Cc1csc(-c2c(Cl)cccc2Cl)n1", "values": [{"measurement": "Ki", "setting": "[1]; read-out: Ki", "result": "> 10", "unit": "µM"}]}
{"smiles": "Cc1cccc(C)c1-c1nc(C(=O)O)cs1", "values": [{"measurement": "Activity", "setting": "[3]", "result": "Dose-dependent-effect"}, {"measurement": "Ki", "setting": "[1]; read-out: Ki", "result": 0.1, "unit": "µM"}, {"measurement": "ΔTm", "setting": "[4]", "result": 18, "unit": "°C"}]}
{"smiles": "O=C(O)c1csc(/C=C/c2ccccc2)n1", "values": [{"measurement": "Ki", "setting": "[1]; read-out: Ki", "result": 3.2, "unit": "µM"}]}
{"smiles": "O=C(O)c1csc(-c2ccccc2I)n1", "values": [{"measurement": "Ki", "setting": "[2]", "result": 0.16, "unit": "µM"}]}
{"smiles": "O=C(Nc1nc(C(=O)O)cs1)c1ccccc1", "values": [{"measurement": "Ki", "setting": "[2]", "result": "> 100", "unit": "µM"}]}
{"smiles": "O=C(O)c1csc(CCc2ccccc2)n1", "values": [{"measurement": "Ki", "setting": "[1]; read-out: Ki", "result": 2.6, "unit": "µM"}]}
